# PubChem BioAssay (NCI)
#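 These data come from cells grown in 96-well plates and exposed to compound for 48 hours at five concentrations. Definition used: TGI = concentration required for complete inhibition of growth.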
# Assays:
# Assay in all cases: DTP human tumour cell line panel, 48 h
# 786-0 renal = tested on: 786-0 renal
# A498 renal = tested on: A498 renal
# A549 NSCLC = tested on: A549 NSCLC
# ACHN renal = tested on: ACHN renal
# BT-549 breast = tested on: BT-549 breast
# CAKI-1 renal = tested on: CAKI-1 renal
# CCRF-CEM leukemia = tested on: CCRF-CEM leukemia
# COLO 205 colon = tested on: COLO 205 colon
# DU-145 prostate = tested on: DU-145 prostate
# HCC-2998 colon = tested on: HCC-2998 colon
# HCT-116 colon = tested on: HCT-116 colon
# HCT-15 colon = tested on: HCT-15 colon
# HOP-62 NSCLC = tested on: HOP-62 NSCLC
# HOP-92 NSCLC = tested on: HOP-92 NSCLC
# HT29 colon = tested on: HT29 colon
# IGROV1 ovarian = tested on: IGROV1 ovarian
# K-562 leukemia = tested on: K-562 leukemia
# KM12 colon = tested on: KM12 colon
# M14 melanoma = tested on: M14 melanoma
# MALME-3M melanoma = tested on: MALME-3M melanoma
# MCF7 breast = tested on: MCF7 breast
# MDA-MB-231 breast = tested on: MDA-MB-231 breast
# MDA-MB-435 = tested on: MDA-MB-435
# MDA-N = tested on: MDA-N
# MOLT-4 leukemia = tested on: MOLT-4 leukemia
# NCI-H226 lung = tested on: NCI-H226 lung
# NCI-H23 lung = tested on: NCI-H23 lung
# NCI-H460 lung = tested on: NCI-H460 lung
# NCI-H522 lung = tested on: NCI-H522 lung
# NCI/ADR-RES ovarian = tested on: NCI/ADR-RES ovarian
# OVCAR-3 ovarian = tested on: OVCAR-3 ovarian
# OVCAR-4 ovarian = tested on: OVCAR-4 ovarian
# OVCAR-5 ovarian = tested on: OVCAR-5 ovarian
# OVCAR-8 ovarian = tested on: OVCAR-8 ovarian
# PC-3 prostate = tested on: PC-3 prostate
# RPMI-8226 leukemia = tested on: RPMI-8226 leukemia
# RXF 393 renal = tested on: RXF 393 renal
# SF-268 CNS = tested on: SF-268 CNS
# SF-295 CNS = tested on: SF-295 CNS
# SF-539 CNS = tested on: SF-539 CNS
# SK-MEL-2 melanoma = tested on: SK-MEL-2 melanoma
# SK-MEL-28 melanoma = tested on: SK-MEL-28 melanoma
# SK-MEL-5 melanoma = tested on: SK-MEL-5 melanoma
# SK-OV-3 ovarian = tested on: SK-OV-3 ovarian
# SN12C renal = tested on: SN12C renal
# SR leukemia = tested on: SR leukemia
# SW-620 colon = tested on: SW-620 colon
# T-47D breast = tested on: T-47D breast
# TK-10 renal = tested on: TK-10 renal
# U251 CNS = tested on: U251 CNS
# UACC-257 melanoma = tested on: UACC-257 melanoma
# UACC-62 melanoma = tested on: UACC-62 melanoma
# UO-31 renal = tested on: UO-31 renal
# EKVX NSCLC = tested on: EKVX NSCLC
# HL-60(TB) leukemia = tested on: HL-60(TB) leukemia
# HS 578T breast = tested on: HS 578T breast
# SNB-19 CNS = tested on: SNB-19 CNS
# SNB-75 CNS = tested on: SNB-75 CNS
# LOX IMVI melanoma = tested on: LOX IMVI melanoma
smiles,measurement,setting,value
CCOc1ccccc1N1CSc2nnc(-c3ccccc3)n2C1,TGI,786-0 renal,> 100 µM
same,TGI,A498 renal,> 100 µM
same,TGI,A549 NSCLC,> 100 µM
same,TGI,ACHN renal,> 100 µM
same,TGI,BT-549 breast,> 100 µM
same,TGI,CAKI-1 renal,> 100 µM
same,TGI,CCRF-CEM leukemia,49.9 µM
same,TGI,COLO 205 colon,> 100 µM
same,TGI,DU-145 prostate,> 100 µM
same,TGI,HCC-2998 colon,> 100 µM
same,TGI,HCT-116 colon,> 100 µM
same,TGI,HCT-15 colon,> 100 µM
same,TGI,HOP-62 NSCLC,> 100 µM
same,TGI,HOP-92 NSCLC,> 100 µM
same,TGI,HT29 colon,> 100 µM
same,TGI,IGROV1 ovarian,> 100 µM
same,TGI,K-562 leukemia,> 100 µM
same,TGI,KM12 colon,> 100 µM
same,TGI,M14 melanoma,> 100 µM
same,TGI,MALME-3M melanoma,> 100 µM
same,TGI,MCF7 breast,> 100 µM
same,TGI,MDA-MB-231 breast,> 100 µM
same,TGI,MDA-MB-435,> 100 µM
same,TGI,MDA-N,> 100 µM
same,TGI,MOLT-4 leukemia,> 100 µM
same,TGI,NCI-H226 lung,> 100 µM
same,TGI,NCI-H23 lung,> 100 µM
same,TGI,NCI-H460 lung,> 100 µM
same,TGI,NCI-H522 lung,> 100 µM
same,TGI,NCI/ADR-RES ovarian,> 100 µM
same,TGI,OVCAR-3 ovarian,> 100 µM
same,TGI,OVCAR-4 ovarian,> 100 µM
same,TGI,OVCAR-5 ovarian,> 100 µM
same,TGI,OVCAR-8 ovarian,> 100 µM
same,TGI,PC-3 prostate,> 100 µM
same,TGI,RPMI-8226 leukemia,> 100 µM
same,TGI,RXF 393 renal,> 100 µM
same,TGI,SF-268 CNS,> 100 µM
same,TGI,SF-295 CNS,> 100 µM
same,TGI,SF-539 CNS,> 100 µM
same,TGI,SK-MEL-2 melanoma,> 100 µM
same,TGI,SK-MEL-28 melanoma,> 100 µM
same,TGI,SK-MEL-5 melanoma,> 100 µM
same,TGI,SK-OV-3 ovarian,> 100 µM
same,TGI,SN12C renal,> 100 µM
same,TGI,SR leukemia,> 100 µM
same,TGI,SW-620 colon,> 100 µM
same,TGI,T-47D breast,> 100 µM
same,TGI,TK-10 renal,> 100 µM
same,TGI,U251 CNS,> 100 µM
same,TGI,UACC-257 melanoma,> 100 µM
same,TGI,UACC-62 melanoma,> 100 µM
same,TGI,UO-31 renal,> 100 µM
O=C(CC(C(=O)c1ccc(F)cc1)c1ccsc1)c1cccs1 (stereo not drawn),TGI,786-0 renal,> 100 µM
same,TGI,A498 renal,> 100 µM
same,TGI,A549 NSCLC,> 100 µM
same,TGI,ACHN renal,> 100 µM
same,TGI,CAKI-1 renal,> 100 µM
same,TGI,CCRF-CEM leukemia,> 100 µM
same,TGI,COLO 205 colon,> 100 µM
same,TGI,DU-145 prostate,> 100 µM
same,TGI,EKVX NSCLC,> 100 µM
same,TGI,HCC-2998 colon,> 100 µM
same,TGI,HCT-116 colon,> 100 µM
same,TGI,HCT-15 colon,> 100 µM
same,TGI,HL-60(TB) leukemia,> 100 µM
same,TGI,HOP-62 NSCLC,> 100 µM
same,TGI,HS 578T breast,> 100 µM
same,TGI,HT29 colon,> 100 µM
same,TGI,IGROV1 ovarian,> 100 µM
same,TGI,K-562 leukemia,> 100 µM
same,TGI,KM12 colon,> 100 µM
same,TGI,M14 melanoma,> 100 µM
same,TGI,MALME-3M melanoma,> 100 µM
same,TGI,MCF7 breast,> 100 µM
same,TGI,MDA-MB-231 breast,> 100 µM
same,TGI,MDA-MB-435,> 100 µM
same,TGI,MDA-N,> 100 µM
same,TGI,MOLT-4 leukemia,89.7 µM
same,TGI,NCI-H226 lung,> 100 µM
same,TGI,NCI-H23 lung,> 100 µM
same,TGI,NCI-H460 lung,> 100 µM
same,TGI,NCI/ADR-RES ovarian,> 100 µM
same,TGI,OVCAR-4 ovarian,> 100 µM
same,TGI,OVCAR-5 ovarian,> 100 µM
same,TGI,OVCAR-8 ovarian,> 100 µM
same,TGI,PC-3 prostate,> 100 µM
same,TGI,RPMI-8226 leukemia,> 100 µM
same,TGI,SF-268 CNS,> 100 µM
same,TGI,SF-295 CNS,> 100 µM
same,TGI,SF-539 CNS,> 100 µM
same,TGI,SK-MEL-2 melanoma,> 100 µM
same,TGI,SK-MEL-28 melanoma,> 100 µM
same,TGI,SK-MEL-5 melanoma,> 100 µM
same,TGI,SK-OV-3 ovarian,> 100 µM
same,TGI,SN12C renal,> 100 µM
same,TGI,SNB-19 CNS,> 100 µM
same,TGI,SNB-75 CNS,> 100 µM
same,TGI,SR leukemia,> 100 µM
same,TGI,SW-620 colon,> 100 µM
same,TGI,T-47D breast,> 100 µM
same,TGI,TK-10 renal,> 100 µM
same,TGI,U251 CNS,> 100 µM
same,TGI,UACC-257 melanoma,> 100 µM
same,TGI,UACC-62 melanoma,> 100 µM
same,TGI,UO-31 renal,> 100 µM
COc1ccc2c(c1)OCC1Cc3cc4c(cc3OC21)OCO4 (stereo not drawn),TGI,786-0 renal,> 100 µM
same,TGI,A498 renal,> 100 µM
same,TGI,A549 NSCLC,> 100 µM
same,TGI,ACHN renal,> 100 µM
same,TGI,BT-549 breast,> 100 µM
same,TGI,CAKI-1 renal,> 100 µM
same,TGI,CCRF-CEM leukemia,> 100 µM
same,TGI,COLO 205 colon,> 100 µM
same,TGI,DU-145 prostate,> 100 µM
same,TGI,EKVX NSCLC,> 100 µM
same,TGI,HCC-2998 colon,> 100 µM
same,TGI,HCT-116 colon,> 100 µM
same,TGI,HCT-15 colon,> 100 µM
same,TGI,HOP-62 NSCLC,> 100 µM
same,TGI,HOP-92 NSCLC,> 100 µM
same,TGI,HT29 colon,> 100 µM
same,TGI,IGROV1 ovarian,> 100 µM
same,TGI,K-562 leukemia,> 100 µM
same,TGI,KM12 colon,> 100 µM
same,TGI,LOX IMVI melanoma,52.4 µM
same,TGI,M14 melanoma,> 100 µM
same,TGI,MALME-3M melanoma,> 100 µM
same,TGI,MCF7 breast,> 100 µM
same,TGI,MDA-MB-231 breast,> 100 µM
same,TGI,MDA-MB-435,34.7 µM
same,TGI,MDA-N,13.8 µM
same,TGI,MOLT-4 leukemia,> 100 µM
same,TGI,NCI-H226 lung,> 100 µM
same,TGI,NCI-H23 lung,> 100 µM
same,TGI,NCI-H522 lung,> 100 µM
same,TGI,NCI/ADR-RES ovarian,> 100 µM
same,TGI,OVCAR-3 ovarian,> 100 µM
same,TGI,OVCAR-5 ovarian,> 100 µM
same,TGI,OVCAR-8 ovarian,> 100 µM
same,TGI,PC-3 prostate,> 100 µM
same,TGI,RPMI-8226 leukemia,> 100 µM
same,TGI,SF-268 CNS,> 100 µM
same,TGI,SF-295 CNS,> 100 µM
same,TGI,SF-539 CNS,> 100 µM
same,TGI,SK-MEL-2 melanoma,86.9 µM
same,TGI,SK-MEL-5 melanoma,57.2 µM
same,TGI,SK-OV-3 ovarian,> 100 µM
same,TGI,SN12C renal,> 100 µM
same,TGI,SNB-19 CNS,> 100 µM
same,TGI,SR leukemia,> 100 µM
same,TGI,SW-620 colon,> 100 µM
same,TGI,T-47D breast,> 100 µM
same,TGI,TK-10 renal,81.1 µM
same,TGI,U251 CNS,> 100 µM
same,TGI,UACC-257 melanoma,> 100 µM
same,TGI,UACC-62 melanoma,> 100 µM
same,TGI,UO-31 renal,> 100 µM
